Reference: US8026218B2, “Bifunctional analgesic compounds for opioid receptor agonists and neurokinin-1 receptor antagonists” (The University of Arizona, priority 2006, dated 2011)
Where “and” joins values, the source holds several entries; their conditions need not be identical. Equal values may be shown once. Entries after “also recorded” stand apart in the source; their conditions may differ. Read-outs that look alike come from different tables or passages of the source.

Experiments:
[1] = Octanol/saline distribution (logD7.4); format: physicochemical; details: 0.05 N HEPES buffer in 0.1 N NaCl
Procedure: HEPES buffer (0.05 M HEPES buffer in 0.1 M NaCl, pH 7.4, 500 μL) was added to 2 mg of compound and mixed with 500 μL of 1-octanol. The sample was shaken at r.t. for 12 h to allow equilibrating. The sample was centrifuged at 6500 rpm in a VanGuard V6500 (GlaxoSmithKline, Research Triangle Park, N.C.) for 15 min. The layers were separated and each layer was centrifuged once again. The compound concentrations of obtained layers were analyzed by HPLC (30-70% of acetonitrile containing 0.1% TFA within 20 min and up to 95% within additional 5 min, 1 mL/min, 230 nm, Vydac 218TP104 C-18 column). The logarithm of 1-octanol/saline distribution (logD7.4) was calculated as the ratio of compound concentration in the 1-octanol and saline phases.
Octanol/saline distribution (logD7.4) (Yamamoto, 2007, J. Med. Chem., submitted). HEPES buffer (0.05 M HEPES buffer in 0.1 M NaCl, pH 7.4, 500 μL) was added to 2 mg of compound and mixed with 500 μL of 1-octanol. The sample was shaken at r.t. for 12 h to allow equilibrating. The sample was centrifuged at 6500 rpm in a VanGuard V6500 (GlaxoSmithKline, Research Triangle Park, N.C.) for 15 min. The layers were separated and each layer was centrifuged once again. The compound concentrations in the obtained layers were analyzed by HPLC (30-70% of acetonitrile containing 0.1% TFA within 20 min and up to 95% within additional 5 min, 1 mL/min, 230 nm, Vydac 218TP104 C-18 column). The logarithm of 1-octanol/saline distribution (logD7.4) was calculated as the ratio of compound concentration in the 1-octanol and saline phases.

rat NK1 (rNK1) receptor = molecular target: T1, rat NK1 (rNK1) receptor (Rattus norvegicus, UniProt P14600); assay: Radioligand competition binding, [3H]substance P, rNK1/CHO membranes; details: for IC50: membranes from transfected CHO cells
T1 construct: expressed in transfected cells; host or cells: CHO (rNK-1/CHO cell line from Dr. James Krause)
T1 sequence (P14600 whole entry): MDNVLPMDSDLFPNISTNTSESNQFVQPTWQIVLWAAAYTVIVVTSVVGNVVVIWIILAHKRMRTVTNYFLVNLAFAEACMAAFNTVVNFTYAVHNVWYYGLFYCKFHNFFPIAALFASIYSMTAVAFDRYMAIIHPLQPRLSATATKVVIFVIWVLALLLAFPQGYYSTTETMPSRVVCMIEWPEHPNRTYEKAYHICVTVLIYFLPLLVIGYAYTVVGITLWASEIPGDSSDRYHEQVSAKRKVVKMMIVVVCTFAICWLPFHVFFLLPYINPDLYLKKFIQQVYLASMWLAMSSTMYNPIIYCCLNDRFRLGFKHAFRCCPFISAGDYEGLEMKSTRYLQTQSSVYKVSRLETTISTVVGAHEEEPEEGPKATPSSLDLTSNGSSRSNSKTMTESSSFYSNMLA

[2] = molecular target: T2, human δ opioid receptors (hDOR) (Homo sapiens, UniProt P41143); assay: [35S]GTP-γ-S binding assay, hDOR; format: biochemical
T2 construct: expressed in transfected cells; host or cells: HN9.10 neuroblastoma cell line, pCDNA3, neomycin-selected clones
T2 sequence (P41143 whole entry): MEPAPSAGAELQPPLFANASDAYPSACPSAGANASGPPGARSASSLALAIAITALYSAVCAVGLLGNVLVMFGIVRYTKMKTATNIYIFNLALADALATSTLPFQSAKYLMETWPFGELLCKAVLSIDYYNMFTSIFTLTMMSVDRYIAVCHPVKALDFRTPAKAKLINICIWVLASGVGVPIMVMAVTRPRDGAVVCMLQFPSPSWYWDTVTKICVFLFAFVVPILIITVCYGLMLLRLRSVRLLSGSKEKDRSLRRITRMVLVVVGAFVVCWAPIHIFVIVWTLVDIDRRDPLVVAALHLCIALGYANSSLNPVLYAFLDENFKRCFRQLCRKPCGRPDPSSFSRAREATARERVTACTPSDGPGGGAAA

[3] = Brain distribution, in situ perfusion model; format: in vivo; details: FIG. 20
μ opioid receptors (GPI) = assay: Guinea pig isolated ileum (GPI) assay, opioid agonist;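 also: inhibition of electrically evoked contractions (0.1 Hz, 0.4 msec, supramaximal voltage) in organ baths at 37 °C, contraction height 3 min after each cumulative dose versus the 1 min before dosing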
Procedure: Guinea Pig Isolated Ileum Assay. […] These tissues were tied to gold chains with suture silk and mounted between platinum wire electrodes in 20 mL organ baths at a tension of 1 g and bathed in oxygenated (95:5 O2:CO2) Kreb's bicarbonate buffer at 37° C. and stimulated electrically (0.1 Hz, 0.4 msec duration) at supramaximal voltage. Following an equilibration period, compounds were added cumulatively to the bath in volumes of 14-60 μL until maximum inhibition was reached. A baseline PL-017 was constructed to determine tissue integrity and allow calculation of antagonist activity before opioid analog testing began.
For opioid data analysis, percentage inhibition was calculated using the average tissue contraction height for 1 min preceding the addition of the agonist divided by the contraction height 3 min after exposure to the dose of agonist. […] IC50 and Emax estimates were determined by computerized nonlinear least-squares analysis (the pharmacological statistics package FlashCalc: Dr. Michael Ossipov, University of Arizona, Tucson, Ariz.). […] A50 values represent the mean of not less than 4 tissues. A50 and Emax estimates were determined by computerized nonlinear least-squares analysis (FlashCalc).

[4] = molecular target: T3, Substance P receptors (guinea pig NK1) (Cavia porcellus, UniProt P30547); assay: Guinea pig isolated ileum (GPI) assay with substance P stimulation in presence of 1 μM naloxone; details: for Kb: Substance P antagonist, GPI; for Kb / Substance P antagonist, GPI, Ke: in the presence of 1 μM naloxone
T3 construct: from tissue; host or cells: guinea pig (Hartley) ileum LMMP, 1 μM naloxone present
T3 sequence (P30547 whole entry): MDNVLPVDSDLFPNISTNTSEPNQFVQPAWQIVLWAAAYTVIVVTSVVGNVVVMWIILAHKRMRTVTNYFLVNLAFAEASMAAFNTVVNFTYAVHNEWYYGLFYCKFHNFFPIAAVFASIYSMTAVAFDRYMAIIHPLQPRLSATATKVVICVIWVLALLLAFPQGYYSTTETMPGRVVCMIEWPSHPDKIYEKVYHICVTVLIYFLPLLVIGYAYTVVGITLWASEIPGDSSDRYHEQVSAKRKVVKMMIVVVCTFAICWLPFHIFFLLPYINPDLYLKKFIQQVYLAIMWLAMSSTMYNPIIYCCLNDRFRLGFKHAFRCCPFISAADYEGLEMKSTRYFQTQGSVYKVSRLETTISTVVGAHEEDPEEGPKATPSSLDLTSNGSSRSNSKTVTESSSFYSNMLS
Procedure: Testing stopped at 1 mM concentrations of the test compound.
Analysis of GPI and MVD assays. For opioid data analysis, percentage inhibition was calculated using the average tissue contraction height for 1 min preceding the addition of the agonist divided by the contraction height 3 min after exposure to the dose of agonist. […] IC50 and Emax estimates were determined by computerized nonlinear least-squares analysis (the pharmacological statistics package FlashCalc: Dr. Michael Ossipov, University of Arizona, Tucson, Ariz.). […] A50 values represent the mean of not less than 4 tissues. A50 and Emax estimates were determined by computerized nonlinear least-squares analysis (FlashCalc).

[5] = molecular target: T4, human NK1 receptor (hNK1) (Homo sapiens, UniProt P25103); assay: Radioligand competition binding, [3H]-Substance P, hNK1; details: for species difference between affinities at rNK1 and hNK1: Ki rNK1 vs Ki hNK1
T4 construct: expressed in transfected cells
T4 sequence (P25103 whole entry): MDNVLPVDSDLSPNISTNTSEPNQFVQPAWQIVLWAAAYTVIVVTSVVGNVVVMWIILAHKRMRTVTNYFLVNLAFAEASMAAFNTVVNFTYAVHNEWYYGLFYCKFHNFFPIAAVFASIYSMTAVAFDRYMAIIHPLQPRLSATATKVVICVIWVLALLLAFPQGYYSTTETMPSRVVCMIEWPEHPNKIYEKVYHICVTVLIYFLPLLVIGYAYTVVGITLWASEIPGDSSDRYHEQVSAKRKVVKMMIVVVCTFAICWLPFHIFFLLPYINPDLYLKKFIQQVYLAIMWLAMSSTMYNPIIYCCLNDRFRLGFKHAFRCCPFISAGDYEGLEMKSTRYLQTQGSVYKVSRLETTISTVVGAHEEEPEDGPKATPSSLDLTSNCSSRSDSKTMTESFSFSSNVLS

[6] = molecular target: T5, rat μ opioid receptors (rMOR) (Rattus norvegicus, UniProt P33535); assay: Radioligand competition binding, [3H]DAMGO, rMOR membranes
T5 construct: expressed in transfected cells; host or cells: HN9.10 neuroblastoma cell line, pCDNA3, neomycin-selected clones
T5 sequence (P33535 whole entry): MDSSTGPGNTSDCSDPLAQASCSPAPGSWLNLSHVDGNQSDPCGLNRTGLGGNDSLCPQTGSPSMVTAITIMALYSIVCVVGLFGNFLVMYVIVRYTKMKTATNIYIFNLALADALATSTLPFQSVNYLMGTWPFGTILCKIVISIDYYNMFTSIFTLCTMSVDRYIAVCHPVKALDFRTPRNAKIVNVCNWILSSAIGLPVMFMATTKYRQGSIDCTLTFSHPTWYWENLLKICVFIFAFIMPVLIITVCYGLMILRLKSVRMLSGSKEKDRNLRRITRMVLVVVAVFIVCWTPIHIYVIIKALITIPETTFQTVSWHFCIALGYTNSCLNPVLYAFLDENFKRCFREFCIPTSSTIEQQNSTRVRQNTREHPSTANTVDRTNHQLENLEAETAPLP

FIG. 47 = assay: FIG. 47
Procedure: Table printed on a drawing sheet, FIG. 47
The patent's description of the figure: FIG. 47. Concentration of cyclic compounds in rat plasma after incubation at 37° C.

rNK1 = rNK1 (Rattus norvegicus, UniProt P14600); details: previous studies; read-out: Affinity (Ki in nM), rNK1; cited from earlier work
Sequence of rNK1 (P14600 whole entry): as the sequence (P14600 whole entry) above

DOR = DOR (Homo sapiens, UniProt P41143); details: previous studies; read-out: Affinity (Ki in nM), DOR; cited from earlier work
Sequence of DOR (P41143 whole entry): as the sequence (P41143 whole entry) above

MOR = MOR (Homo sapiens, UniProt P35372); details: previous studies; read-out: Affinity (Ki in nM), MOR; cited from earlier work
Sequence of MOR (P35372 whole entry): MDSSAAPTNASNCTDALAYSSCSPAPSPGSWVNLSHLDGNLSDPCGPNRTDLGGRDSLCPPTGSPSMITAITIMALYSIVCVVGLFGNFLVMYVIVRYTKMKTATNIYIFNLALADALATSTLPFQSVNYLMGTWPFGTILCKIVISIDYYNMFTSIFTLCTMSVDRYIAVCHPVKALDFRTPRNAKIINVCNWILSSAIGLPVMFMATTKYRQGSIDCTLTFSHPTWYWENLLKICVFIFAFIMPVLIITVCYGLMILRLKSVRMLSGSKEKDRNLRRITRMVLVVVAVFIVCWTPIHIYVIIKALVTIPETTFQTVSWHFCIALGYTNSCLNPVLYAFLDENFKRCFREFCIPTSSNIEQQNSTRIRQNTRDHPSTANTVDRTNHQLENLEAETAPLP

[7] = tested on: L5/L6 spinal nerve ligated (SNL) male Sprague Dawley rats; assay: Anti-allodynia, von Frey filament testing in L5/L6 SNL rats; format: in vivo, rat; details: for anti-allodynic effect against mechanical stimulation: SNL rats, words
Procedure: (§1) To estimate the analgesic potency of the chimeric compounds, anti-nociceptive, anti-hyperalgecia and anti-allodynic efficacies is tested via intrathecal (i.th.) or systemic (s.c.) administration of the compounds in L5/L6 spinal nerve ligated (SNL) male Sprague Dawley rats. Anti-nociception and anti-hyperalgecia were determined by using the infrared thermal testing, wherein paw withdrawal latencies were measured in response to a mobile radiant heat (FIG. 7-14). Anti-allodynic effect was measured in von Frey filamental testing (FIG. 7-14). Both chronic and acute animal models were tested ([…]).
(§2) In vivo Biological Activity. […] Food and water was available ad libitum. […] I.th. […] Each training session lasted three minutes. […] Discussion.

normal, uninjured rats [8] = details: reported; cited from earlier work
[9] = molecular target: T4, human NK1 receptor (hNK1); details: Cascieri 1994; cited from earlier work
male Sprague Dawley rats [10] = assay: Anti-nociception, infrared radiant heat paw withdrawal latency; format: in vivo, rat; details: i.th.
Procedure: as §1, §2

[11] = molecular target: T2, human δ opioid receptors (hDOR); assay: Radioligand competition binding, [3H]DPDPE, hDOR membranes; details: membranes from transfected HN9.10 cells
normal, uninjured rats [12] = assay: Rotarod motor skill test; details: highest analgesic dose 30 μg
male Sprague Dawley rats [13] = assay: Observation of toxicity throughout the in vivo studies; parameters: species or system rat
Excerpt: as §2
These assays gave the inventors very encouraging results.

[14] = molecular target: T5, rat μ opioid receptors (rMOR); assay: biochemical; format: biochemical
[15] = Solubility in HEPES buffer; format: physicochemical; details: pH 7.4; 0.05 N HEPES buffer in 0.1 N NaCl solution
Procedure: Solubility. HEPES buffer (0.05 M HEPES buffer in 0.1 M NaCl, pH 7.4, 500 μL) was added to 1 mg of compound. The sample was vortexed for 30 sec, sonicated for 5 min, shaken at r.t. for 2 h, and then allowed to be stayed overnight to equilibration. The sample was filtrated with an Acrodisc Syringe Filter (13 mm, 0.45 μm pore, PTFE membrane, Pall Life Sciences, East Hills, N.Y.).

[16] = tested on: L5/L6 spinal nerve ligated (SNL) male Sprague Dawley rats; assay: Anti-hyperalgesia, infrared radiant heat in L5/L6 SNL rats; format: in vivo, rat
Procedure: as §1, §2

δ opioid receptors (MVD) = molecular target: T6, δ opioid receptors (MVD) (Mus musculus, UniProt P32300); assay: Mouse isolated vas deferens (MVD) assay, opioid agonist
T6 construct: from tissue; host or cells: mouse (ICR) isolated vas deferens
T6 sequence (P32300 whole entry): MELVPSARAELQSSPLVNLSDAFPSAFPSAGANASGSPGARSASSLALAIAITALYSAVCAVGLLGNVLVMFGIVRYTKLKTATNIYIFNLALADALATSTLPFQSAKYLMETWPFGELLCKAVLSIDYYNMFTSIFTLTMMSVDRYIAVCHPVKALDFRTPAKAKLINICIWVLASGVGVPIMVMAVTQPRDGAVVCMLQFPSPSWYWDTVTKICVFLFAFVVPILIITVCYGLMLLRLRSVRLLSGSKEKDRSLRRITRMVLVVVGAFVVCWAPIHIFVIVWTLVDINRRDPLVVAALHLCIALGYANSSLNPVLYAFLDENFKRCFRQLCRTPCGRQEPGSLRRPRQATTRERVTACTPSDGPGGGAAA

[17] = Table 30, read-out: GPI/LMMP Opioid(m) Agonist (IC50; nM)
[18] = Table 39, read-out: GPI/LMMP opioid(mu) agonist (IC50; nM)
[19] = electrically stimulated isolated tissue, read-out: GPI (μ), IC50
[20] = read-out: GTP binding hDOR Emax
[21] = read-out: GTP binding hDOR Emax (%)
[22] = chronic, i.th., SNL-operated animals

CSCC[C@H](NC(=O)[C@H](Cc1ccccc1)NC(=O)CNC(=O)[C@@H](C)NC(=O)[C@@H](N)Cc1ccc(O)cc1)C(=O)N1CCC[C@H]1C(=O)N[C@@H](CC(C)C)C(=O)N[C@@H](Cc1c[nH]c2ccccc12)C(=O)NCc1ccccc1 [TY025, H-Tyr-D-Ala-Gly-Phe-Met-Pro-Leu-Trp-NH-Bzl]
logD7.4 [1]: 3.6
Ki (rat NK1 (rNK1) receptor; Table 39, read-out: Affinity rNK1 (Ki; nM)): 696 nM
LogEC50, hDOR ([2]; Table 14, logarithm of EC50 (negative), HN9.10 cell): −8.6 ± 0.13
blood brain barrier penetration [3]: penetrate blood brain barrier
IC50 (μ opioid receptors (GPI); [17]): 61.1 nM
IC50 (μ opioid receptors (GPI); [18]): 61.1 nM
IC50 (μ opioid receptors (GPI); [19]): 61 nM
Kb ([4]; Ke (nM), Table 16): 9.9 ± 2.8 nM
species difference between affinities at rNK1 and hNK1 [5]: 220 fold

CC(C)C[C@H](NC(=O)[C@@H]1CCCN1C(=O)[C@H]1NC(=O)[C@H](Cc2ccccc2)NC(=O)CNC(=O)[C@H](NC(=O)[C@@H](N)Cc2ccc(O)cc2)C(C)(C)SSC1(C)C)C(=O)N[C@@H](Cc1c[nH]c2ccccc12)C(=O)NCc1cc(C(F)(F)F)cc(C(F)(F)F)c1 [TY046]
Emax [2, 20]: 15%
Emax [2, 21]: 15%
Ki [6]: 2330 nM
T1/2 (FIG. 47): 8.0 h
Ki [5]: 0.0053 nM

HTyrDAlaDPhePheDTrpLeuMetNH2 [JSOH9]
Ki (rNK1): 2940 nM
Ki (DOR): 0.72 nM
Ki (MOR): 606 nM

CN1CC[C@]23c4c5ccc(O)c4O[C@H]2[C@@H](O)C=C[C@H]3[C@H]1C5 [morphine, reference compound]
anti-allodynic effect against mechanical stimulation [7]: negligible anti-allodynic efficacy
rotarod performance (normal, uninjured rats [8]): impaired performance

CC(=O)N[C@@H](Cc1c[nH]c2ccccc12)C(=O)OCc1cc(C(F)(F)F)cc(C(F)(F)F)c1 [L-732,138, Ac-Trp-3,5-O-Bzl(CF3)2, reference compound]
Substance P antagonist, GPI, Ke ([4]; Table 16): 250 ± 87 nM
Substance P antagonist, GPI, Ke ([4]; Table 22): 250 ± 87 nM
Substance P antagonist, GPI, Ke [4]: 247 nM
Substance P antagonist, GPI, Ke [4]; 138: 247 ± 87 nM and 250 ± 87 nM
less affinity for rNK1 than hNK1 receptor [9]: 200 fold

HTyrDAlaDTrpPheDTrpLeuLeuNH2 [JSOH11]
Ki (rNK1): 7320 nM
Ki (DOR): 16.5 nM
Ki (MOR): 164 nM

CSCC[C@H](NC(=O)[C@H](Cc1ccccc1)NC(=O)CNC(=O)[C@@H](C)NC(=O)[C@@H](N)Cc1ccc(O)cc1)C(=O)N1CCC[C@H]1C(=O)N[C@@H](CC(C)C)C(=O)N[C@@H](Cc1c[nH]c2ccccc12)C(=O)OCc1cc(C(F)(F)F)cc(C(F)(F)F)c1 [TY005, H-Tyr-D-Ala-Gly-Phe-Met-Pro-Leu-Trp-O-3,5-Bzl(CF3)2]
time after administration at which efficacy disappeared (male Sprague Dawley rats [10]): 45 min
anti-nociceptive effect (male Sprague Dawley rats [10]; infrared radiant heat, words): very potent; also recorded: distinct anti-nociceptive effect
logD7.4 [1]: >4.0
anti-allodynic effect against mechanical stimulation [7]: very potent anti-allodynic effect
mechanical allodynia after chronic administration [7, 22]: reverses mechanical allodynia
LogIC50, hDOR, [3H]DPDPE [11]: −8.22 ± 0.06
Ki (rat NK1 (rNK1) receptor; Affinity rNK1 (Ki; nM), Table 29): 0.2 nM
IC50 (rat NK1 (rNK1) receptor; IC50, rNK1, Substance P radioligand): 6.4 nM
IC50 (rat NK1 (rNK1) receptor; LogIC50, rNK1, Substance P radioligand): 6.03 nM
sensorimotor impairment in rotarod test (normal, uninjured rats [12]): no sensorimotor impairment
Emax ([2]; read-out: Emax, hDOR, [35S]GTP-γ-S binding): 51%
Emax [2, 20]: 47.6%
Emax [2, 21]: 47.6%
sign of toxicity (male Sprague Dawley rats [13]): without any sign of toxicity; also recorded: no sign of toxicity
blood brain barrier penetration [3]: penetrate blood brain barrier
Emax ([14]; read-out: Emax, rMOR, [35S]GTP-γ-S binding): 45%
Emax ([14]; read-out: GTP binding rMOR Emax): 45.6%
Emax ([14]; read-out: GTP binding rMOR Emax (%)): 45.6%
solubility [15]: < 0.2 µg/mL
IC50 (μ opioid receptors (GPI); Table 16, electrically stimulated isolated tissue, read-out: Opioid agonist GPI (μ), IC50): 360 ± 130 nM
IC50 (μ opioid receptors (GPI); Table 28, read-out: GPI/LMMP Opioid(m) Agonist (IC50; nM)): 359 nM
IC50 (μ opioid receptors (GPI); [17]): 359 nM
IC50 (μ opioid receptors (GPI); [18]): 359 nM
IC50 (μ opioid receptors (GPI); [19]): 359 ± 127 nM
Kb ([4]; Ke): 24.7 ± 8.8 nM
activation at 1 µM ([4]; read-out: Substance P GPI agonist (A50), at 1 μM, contraction relative to initial muscle contraction with KCl): 0%
species difference between affinities at rNK1 and hNK1 [5]: 3.4 fold
anti-hyperalgesic recovery ([16]; 30 μg i.th., SNL rats): ~100%
thermal hyperalgesia after chronic administration [16, 22]: attenuates thermal hyperalgesia
anti-hyperalgesic efficacy ([16]; i.th., SNL rats, words): very potent; also recorded: Dose dependent anti-hyperalgesic efficacy
IC50 (δ opioid receptors (MVD)): 22.3 nM
